Data: US20130035321A1, “COMPOUNDS FOR THE TREATMENT OF OCULAR CANCER” (AnalytiCon Discovery GmbH, priority 2009, published 2013)
“Also recorded” adds a separate entry of the source. Like-named read-outs stand apart in the source and are kept apart here.

Tests used:
RB355 cells = assay: Cytotoxicity dose response in 384-well plates (Alamar Blue), RB355; type: cell-based, human; details: for activity toward RB355 cells below 100 μM: upper limit 100 μM
Method: (§1) Dose response studies were performed in 384-well microtiter plates (#3712, Corning Inc., Corning, N.Y.) according to the following protocol: cells were added in 45 μL medium to the screening plates using Flexdrop. After 72 h incubation was added 5 μL Alamar Blue using Flexdrop. The cells were then incubated for another 24 h, and the fluorescence intensity was read on LEADseeker™ Multimodality Imaging System as previously described. To calculate the IC50 for each compound toward each cell line, the dose response was assessed in duplicate and using 12 point doubling dilutions with 100 μM compound concentration as the upper limit. The dose response curve for each set of data was fitted separately, and the two IC50 values obtained were averaged.
as §1, with “averaged. […] IC50 of 0.1 corresponds to <0.1 μM and IC50 of 100 corresponds to >100 μM.” for “averaged.”

Y79 cells [1] = assay: Cytotoxicity dose response in 384-well plates (Alamar Blue), Y79; type: cell-based, human; details: for activity toward Y79 cells below 100 μM: upper limit 100 μM; for IC50: read-out: IC50 toward Y79 cells
Method: as §1
as §1, with “averaged. […] IC50 of 0.1 corresponds to <0.1 μM and IC50 of 100 corresponds to >100 μM.” for “averaged.”

stage Vb retinoblastoma = type: in vivo, human
Y79 cells [2] = type: cell-based, human
[3] = test system: Y79, RB355, WERI-Rb-1 and C918 ocular cancer cell lines; assay: Dose response (SAR) of 35 cardenolides in a panel of four ocular cancer cell lines; type: cell-based, human; details: panel Y79, RB355, WERI-Rb-1, C918
Method: as §1
To explore the structure activity relationship (SAR) within this chemical class a collection of 35 cardenolides and derivatives was constituted. The dose response for each compound toward the ocular cancer cell lines Y79, RB355, WERI-Rb-1 and C918 was then assessed.

Y79LUC cells = assay: Subcutaneous Y79LUC xenograft model of retinoblastoma; type: in vivo, mouse
Method: Subcutaneous xenograft experiments were performed at the Memorial Sloan-Kettering Cancer Center Antitumor Assessment Core Facility. Y79LUC cells (10E6) embedded in matrigel (BD Biosciences, San Jose, Calif.) were injected subcutaneously in the right flank of 8-weeks old ICR/SCID male mice. Treatment started when the tumors reached approximately 250 mm^3. The mice were randomized into three groups and two mice per group were treated with either 10% DMSO (v/v) (control group), 1.5 mg/kg ouabain or 15 mg/kg ouabain. Treatment was performed by continuous subcutaneous infusion using osmotic minipumps (#1007D, Alzet, Cupertino, Calif.). Tumor size was measured externally two times a week with a caliper. Body weight of each mouse was monitored as well as other signs of toxicity throughout the treatment period. Bioluminescent imaging of the tumors was performed once a week and prior to sacrifice as follows: mice were anesthetized by isofluorane inhalation and injected with D-luciferin at 50 mg/Kg (Xenogen) intraperitoneally; photonic emission was measured with the In Vivo Imaging System (IVIS 200, Xenogen) with a collection time of 5 seconds.
The therapeutic effect of the drug ouabain in a mouse xenograft model of retinoblastoma was also investigated. Three groups of two 8 weeks old ICR/SCID male mice bearing Y79 tumors implanted in the flank were treated with either vehicle only, 1.5 mg/kg ouabain or 15 mg/kg ouabain. Mice were continuously infused subcutaneously using an osmotic minipump delivery system. […] In comparison, tumors in the vehicle-treated control group continuously grew, necessitating to euthanize the animals at day 19.

Y79 cells [4] = type: cell-based, human; remark: listed apart in the source
[5] = Homo sapiens, read-out: IC50 toward RB355 cells

C=C1/C(=C\C=C2/CCC[C@]3(C)[C@@H]([C@H](C)CCCC(C)(C)O)CC[C@@H]23)C[C@@H](O)C[C@@H]1O [calcitriol]
activity toward RB355 cells below 100 μM (RB355 cells): neither caboplatin or calcitriol had any significant activity below 100 μM
activity toward Y79 cells below 100 μM (Y79 cells [1]): did not demonstrate any significant activity toward Y79 cells below 100 μM

N.N.O=C([O-])C1(C(=O)[O-])CCC1.[Pt+2] [carboplatin]
activity toward RB355 cells below 100 μM (RB355 cells): neither caboplatin or calcitriol had any significant activity below 100 μM
activity toward Y79 cells below 100 μM (Y79 cells [1]): did not demonstrate any significant activity toward Y79 cells below 100 μM

N.N.[Cl][Pt][Cl] [cisplatin]
maximum inhibition toward RB355 cells (RB355 cells; at 100 μM): 65%
activity toward Y79 cells below 100 μM (Y79 cells [1]): did not demonstrate any significant activity toward Y79 cells below 100 μM

C[C@H]1O[C@@H](O[C@H]2[C@@H](O)C[C@H](O[C@H]3[C@@H](O)C[C@H](O[C@H]4CC[C@@]5(C)[C@H](CC[C@@H]6[C@@H]5C[C@@H](O)[C@]5(C)[C@@H](C7=CC(=O)OC7)CC[C@]65O)C4)O[C@@H]3C)O[C@@H]2C)C[C@H](O)[C@@H]1O [digoxin]
exam three weeks after intraarterial infusion (stage Vb retinoblastoma; in vivo): Exam remained stable
exam three weeks after second round of intraarterial infusion (stage Vb retinoblastoma; in vivo): decreased tumor size, fewer vitreous seeds, and resolution of the retinal detachment
exam three weeks after third intraarterial dose (stage Vb retinoblastoma; in vivo): measurable but modest improvement but residual active disease
reexamination after oral treatment (stage Vb retinoblastoma; in vivo, po): progression of disease

COc1cc([C@@H]2c3cc4c(cc3[C@@H](O[C@@H]3O[C@@H]5CO[C@@H](C)O[C@H]5[C@H](O)[C@H]3O)[C@H]3COC(=O)[C@H]23)OCO4)cc(OC)c1O [etoposide]
apoptosis (activated Caspase-3) compared to baseline (Y79 cells [2]): induced significant apoptosis
IC50 (RB355 cells; [5]): 0.97 µM
IC50 (Y79 cells [1]; Homo sapiens, Y79): 11 µM

N[C@@H](Cc1ccc(N(CCCl)CCCl)cc1)C(=O)O [melphalan]
response to intraarterial chemotherapy (stage Vb retinoblastoma; three cycles, administered elsewhere before presentation): incomplete response; also recorded: no regression on the main tumor or vitreous seeds

COc1ccc(C2=N[C@@H](c3ccc(Cl)cc3)[C@@H](c3ccc(Cl)cc3)N2C(=O)N2CCNC(=O)C2)c(OC(C)C)c1 [nutlin-3]
IC50 (RB355 cells; read-out: IC50 toward RB355 cells): 11 µM
IC50 (Y79 cells [1]): 78 µM

C[C@@H]1O[C@@H](O[C@H]2C[C@@H](O)[C@]3(CO)[C@H]4[C@H](O)C[C@]5(C)[C@@H](C6=CC(=O)OC6)CC[C@]5(O)[C@@H]4CC[C@]3(O)C2)[C@H](O)[C@H](O)[C@H]1O [ouabain]
apoptosis (activated Caspase-3) compared to baseline (Y79 cells [2]): induced significant apoptosis; also recorded: induces apoptosis
activity across the panel of ocular cell lines [3]: potent activity across the entire panel of ocular cell lines tested
tumor burden compared to the control group (Y79LUC cells; 1.5 mg/kg, continuous subcutaneous infusion): seemed to reduce the tumor burden
tumor burden by bioluminescent imaging (Y79LUC cells; 15 mg/kg, continuous subcutaneous infusion by minipump, after 14 days of treatment): complete tumor regression
average tumor size (Y79LUC cells; 15 mg/kg, day 14, caliper): 18 mm^3
toxicity (average body weight, signs of toxicity) (Y79LUC cells; 15 mg/kg, throughout treatment period): did not induce any significant toxicity; also recorded: no signs of toxicity were observed
effect on Y79 cells in Yo-Pro pilot study (Y79 cells [4]): eradicated Y79 cells
IC50 (RB355 cells; [5]): 0.4 µM
IC50 (Y79 cells [1]; Homo sapiens, Y79): 0.65 µM

CC[C@]1(O)C[C@H]2CN(CCc3c([nH]c4ccccc34)[C@@](C(=O)OC)(c3cc4c(cc3OC)N(C=O)[C@H]3[C@@](O)(C(=O)OC)[C@H](OC(C)=O)[C@]5(CC)C=CCN6CC[C@]43[C@@H]65)C2)C1 [vincristine]
apoptosis (activated Caspase-3) compared to baseline (Y79 cells [2]): induced significant apoptosis
IC50 (RB355 cells; Homo sapiens, read-out: IC50 toward RB355): 0.0016 µM
plateau of inhibition toward Y79 cells (Y79 cells [1]; plateau prevented calculation of IC50): 50%
